From patent US10676744B2, “Modulation of adipose tissue macrophage phenotype by use of MicroRNA-30” (University of South Carolina, priority 2017, dated 2020)

Legend:
Format in all cases: cell-based, mice
[1] = test system: miRs-30a-5p, -30c-5p, and -30e-5p; experiment: In vitro LNA transfection assay in conditioned BMDM: miR-30 expression; conditions: BMDM in CM-3T3-L1A, LNA-transfected; relative to Mock and control LNA (Ctr LNA)
Protocol: ATMs were lysed in Qiazol and total RNA was purified using Qiagen miRNeasy Microkit. RNA concentration and purity were measured using a NanoDrop 2000 spectrophotometer. 400 ng total RNA was reverse transcribed to cDNA using Qiagen miScript II RT kit with HiFlex buffer. To validate miRNA expression by qRT-PCR, miScript SYBR Green PCR kit and miScript miRNA Primer Assays were used (Qiagen).
(§1) Bone marrow derived macrophages (BMDM) were differentiated from bone marrow cells (BMC) by flushing the tibia and femur of 6-8 week old female C57Bl/6J mice with PBS. BMCs were filtered through a 70 μm nylon mesh, RBC-lysed, and washed, then cultured in complete DMEM/F12 supplemented with 10% FBS, 1% penicillin/streptomycin, 2 mM L-glutamine, and 1 U/mL M-CSF (BioLegend, 576406) for 7-10 days. 3T3-L1 adipocyte-conditioned media (CM-3T3-L1A) was generated by differentiating 3T3-L1 preadipocytes into adipocytes according to the Zen-Bio 3T3-L1 Adipocyte Care Manual (ZBM0009.03). Preadipocyte medium, differentiation medium, and adipocyte maintenance medium were also used (Zen-Bio, PM-1-L1, DM-2-L1, AM-1-L1). Conditioned medium was collected between days 7 and 14 post-differentiation, 0.22 μm filtered, aliquoted, and stored at −80° C. until use. For transfection assays, mature BMDM were plated in poly-D-lysine-coated 6-well plates at a density of 5×10^5 cells in 2 ml CM-3T3-L1A containing 10% FBS without antibiotics. BMDM were incubated 24 h (37° C., 5% CO2, 95% humidity) before transfection. Transfection complexes were prepared by diluting Lipofectamine3000 and LNA in Opti-MEM to final concentrations of 2% (v/v) and 0.32 μM respectively. Mixtures were incubated 15-20 m at RT to allow complexes to form. Meanwhile, conditioned BMDM were washed 3× in pre-warmed Dulbecco's PBS (DPBS), then media replaced with 2 mL Opti-MEM. 5004 transfection complexes were added drop-wise to each well. […]

DLL4 = experiment: In vitro LNA transfection assay in BMDM: DLL4 in culture supernatants by ELISA; conditions: LNA-transfected BMDM; compared to Mock and Ctr LNA; harvested at 48 h
Protocol: (§2) FIG. 3A schematically illustrates an in vitro experimental timeline during which differentiated bone marrow-derived microphages (BMDM) were incubated in conditioned medium from 3T3-L1 adipocytes (CM-3T3-L1A) prior to transfection with microRNA inhibitor locked nucleic acids (LNA) and subsequent culture. Cells and supernatants were harvested at 48 h.
FIG. 3B presents the amounts of DLL4 detected in culture supernatants by ELISA during the in vitro experiments.
as §1, with “form.” for “form. Meanwhile, conditioned BMDM were washed 3× in pre-warmed Dulbecco's PBS (DPBS), then media replaced with 2 mL Opti-MEM. 5004 transfection complexes were added drop-wise to each well.”
Culture supernatants were aspirated and centrifuged 5000 RPM, 5 m, 4° C. to rid of debris then aliquoted and stored −80° C. before assaying. […] Assays were performed according to manufacturer protocols and plates were read at 450 nm. Concentrations were calculated using standard curves.

[2] = test system: Notch1 intracellular domain (N1ICD); experiment: In vitro LNA transfection assay in BMDM: Western blot of cleaved/activated Notch1; conditions: LNA-transfected BMDM, compared to Mock and Ctr LNA
Protocol: as §2
FIG. 3C presents Western blot results of cleaved/activated Notch1 (N1ICD) during the in vitro experiments. Fold induction relative to Mock is represented below each lane.
as §1

CD11c = experiment: In vitro LNA transfection assay in BMDM: CD11c surface expression by flow cytometry; conditions: DAPT (5 uM) added to culture media of transfected BMDM
Protocol: as §2
FIG. 3F presents flow cytometry histograms of CD11c expression in the transfected BMDM. For FIG. 3B-FIG. 3F, values are presented as mean±SEM and are from a single experiment representative of 2-3 independent experiments.
FIG. 3G presents the percentage increase in CD11c+ macrophages during the in vitro experiments.
Freshly isolated SVF cells or cultured BMDM were washed in FACS buffer then incubated on ice with FcR-Blocker for 10 m followed by appropriate fluorochrome-conjugated antibodies or isotype controls (BioLegend, anti-CD11b-AlexaFluor488 clone: M1/70, anti-F4/80-PE clone: BM8, anti-DLL4-APC clone: HMD4-1, anti-CD45-PECy7 clone: 30-F11, anti-CD11c-APC clone: N418) for 50 m. Stained cells were washed 3× in FACS buffer then analyzed on a Beckman Coulter FC500 or BD FACSCelesta flow cytometer. Plots were analyzed with Beckman Coulter CXP Software or FlowJo v10.
Bone marrow derived macrophages (BMDM) were differentiated from bone marrow cells (BMC) by flushing the tibia and femur of 6-8 week old female C57Bl/6J mice with PBS. […]

Compound	expression of miRs-30a-5p, -30c-5p, and -30e-5p [1]	DLL4 expression (culture supernatants, ELISA) (DLL4)	activated Notch1 intracellular domain (N1ICD) expression [2]	induction of CD11c in miR-30 inhibitor-transfected cells (CD11c)
Anti-30a: miRNA inhibitor locked nucleic acid (MirCURY LNA, Exiqon) targeting miR-30a-5p; SEQ ID NO: 2 TTCCAGTCGAGGATGTTTAC (LNA-modified miRCURY inhibitor, LNA positions and linkages not given here)	decreased expression	increased	increased	
C[C@H](NC(=O)Cc1cc(F)cc(F)c1)C(=O)N[C@H](C(=O)OC(C)(C)C)c1ccccc1 [DAPT]				reduced induction
Anti-30c: miRNA inhibitor locked nucleic acid (MirCURY LNA, Exiqon) targeting miR-30c-5p; SEQ ID NO: 3 CTGAGAGTGTAGGATGTT (LNA-modified miRCURY inhibitor, LNA positions and linkages not given here)	decreased expression	increased	increased	
Anti-30e: miRNA inhibitor locked nucleic acid (MirCURY LNA, Exiqon) targeting miR-30e-5p; SEQ ID NO: 4 TCCAGTCAAGGATGTTTAC (LNA-modified miRCURY inhibitor, LNA positions and linkages not given here)	decreased expression	increased	increased	
